Key:
patients with OAB = assay: Phase 2b study: cardiovascular safety, orthostatic AEs, blood pressure and heart rate changes (Table 17); assay type: in vivo, human; details: for DBP Change from Baseline ≥15 mm Hg, n/N (%) / HR Change from Baseline [≥] 10 bpm, n/N (%) / HR Change from Baseline ≥5 bpm, n/N (%) / HR Change from Baseline ≥15 bpm, n/N (%) / SBP Change from Baseline [≥] 5 mm Hg, n/N (%) / SBP Change from Baseline [≥] 10 mm Hg, n/N (%) / SBP Change from Baseline ≥15 mm Hg, n/N (%) / DBP Change from Baseline [≥] 5 mm Hg, n/N (%) / DBP Change from Baseline [≥] 10 mm Hg, n/N (%): counts based on 3 consecutive post-baseline visits; for DBP Change from Baseline, Mean (95% CI) Max / HR Change from Baseline, Mean (95% CI) Maximum / SBP Change from Baseline, Mean (95% CI) Maximum: mean maximum from week 1 to 8
From the text: None led to discontinuation. The overall incidence of orthostatic symptoms was low.
Small differences in the percent of subjects exceeding categorical heart rate and blood pressure thresholds for vibegron were similar to those in the tolterodine arm.

CYP3A4 = CYP3A4 (Homo sapiens, UniProt P08684); assay: in vitro CYP metabolism; assay type: in vitro ADME
[1] = tested on: men and women with overactive bladder; assay: Phase 3 study vibegron 75 mg: post-void residual urine volume (Tables 26-28); assay type: in vivo, human
From the text: The risk of acute urinary retention or morbidities related to an increase in Post-Void Residual (PVR) is a concern with antimuscarinic therapy that promotes smooth muscle relaxation by inhibiting acetylcholine-induced smooth muscle contraction. If, during contraction, the bladder cannot generate enough pressure to overcome the outlet resistance in the urethra, either because of poor detrusor contractility or profound obstruction (most commonly from BPH), acute urinary retention or incomplete emptying of the bladder may result.
The volume of urine that remains in the bladder after voiding (PVR) is an objective measurement that may serve as a proxy for impaired ability to void.
PVR were performed via ultrasound at the visits indicated in the Schedule of Activities.
In addition, the data on the Post Void Residual Urine Volume (PVR) in all males and males with a medical history of BPH is shown in Tables 26 and 27, respectively.

[2] = Males with medical history of BPH
[3] = all males, vibegron 75 mg or tolterodine ER 4 mg QD

Sequence of CYP3A4 (P08684 whole entry): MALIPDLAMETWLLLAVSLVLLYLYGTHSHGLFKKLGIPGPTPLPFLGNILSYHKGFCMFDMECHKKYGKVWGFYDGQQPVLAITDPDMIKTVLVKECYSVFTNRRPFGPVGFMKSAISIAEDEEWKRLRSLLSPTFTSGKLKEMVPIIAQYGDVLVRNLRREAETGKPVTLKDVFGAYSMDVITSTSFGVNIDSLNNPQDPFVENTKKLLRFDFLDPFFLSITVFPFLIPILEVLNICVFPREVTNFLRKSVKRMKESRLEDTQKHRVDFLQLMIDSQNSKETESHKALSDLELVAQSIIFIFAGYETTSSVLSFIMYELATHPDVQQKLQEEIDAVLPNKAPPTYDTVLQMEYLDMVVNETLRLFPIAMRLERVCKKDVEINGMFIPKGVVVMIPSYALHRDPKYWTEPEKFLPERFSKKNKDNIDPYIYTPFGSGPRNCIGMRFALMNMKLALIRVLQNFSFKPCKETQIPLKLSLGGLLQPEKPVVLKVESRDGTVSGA
From the text for healthy subjects: Safety data from 16 Phase 1 studies, which include 15 completed Phase 1 studies and 1 study that was terminated early (this study was terminated for reasons unrelated to efficacy or safety) was collected.

For `O=C(Nc1ccc(C[C@@H]2CC[C@H]([C@H](O)c3ccccc3)N2)cc1)[C@@H]1CCc2nccc(=O)n21` [Vibegron, (6S)—N-[4-[[(2S,5R)-5-[(R)-hydroxy(phenyl)methyl]pyrrolidin-2-yl]methyl]phenyl]-4-oxo-7,8-dihydro-6H-pyrrolo[1,2-a]pyrimidine-6-carboxamide], the “DBP Change from Baseline ≥15 mm Hg, n/N (%)” value (patients with OAB; vibegron 15 mg) was 1/132 (0.8) %, the “HR Change from Baseline [≥] 10 bpm, n/N (%)” value (patients with OAB; vibegron 15 mg) was 4/132 (3.0) % and the “HR Change from Baseline ≥5 bpm, n/N (%)” value (patients with OAB; vibegron 15 mg) was 17/132 (12.9) %. For the same compound, the “HR Change from Baseline ≥15 bpm, n/N (%)” value (patients with OAB; vibegron 15 mg) was 1/132 (0.8) %, the “SBP Change from Baseline [≥] 5 mm Hg, n/N (%)” value (patients with OAB; vibegron 15 mg) was 22/132 (16.7) % and the “SBP Change from Baseline [≥] 10 mm Hg, n/N (%)” value (patients with OAB; vibegron 15 mg) was 9/132 (6.8) %. The “SBP Change from Baseline ≥15 mm Hg, n/N (%)” value (patients with OAB; vibegron 15 mg) was 1/132 (0.8) %, the “DBP Change from Baseline, Mean (95% CI) Max” value (“DBP Change … (95% CI) Max” below) (patients with OAB; vibegron 15 mg) was 6.37 (5.20, 7.53) mm Hg and the “HR Change from Baseline, Mean (95% CI) Maximum” value (“HR Change … (95% CI) Maximum” for short) (patients with OAB; vibegron 15 mg) was 6.56 (5.20, 7.92) bpm. For the same compound, the “SBP Change from Baseline, Mean (95% CI) Maximum” value (“SBP Change … (95% CI) Maximum” for short) (patients with OAB; vibegron 15 mg) was 8.93 (7.18, 10.67) mm Hg, the “DBP Change from Baseline, Mean (95% CI) (week 1)” value (from here on “DBP Change … (95% CI) (week 1)”) (patients with OAB; vibegron 15 mg) was 0.03 (−1.52, 1.59) mm Hg and the “HR Change from Baseline, Mean (95% CI) (week 1)” value (shortened to “HR Change … (95% CI) (week 1)”) (patients with OAB; vibegron 15 mg) was 0.35 (−1.15, 1.85) bpm. The “SBP Change from Baseline, Mean (95% CI) (week 1)” value (shortened to “SBP Change … (95% CI) (week 1)”) (patients with OAB; vibegron 15 mg) was −0.34 (−2.46, 1.78) mm Hg, the “DBP Change from Baseline [≥] 5 mm Hg, n/N (%)” value (patients with OAB; vibegron 50 mg) was 11/144 (7.6) % and the “DBP Change from Baseline [≥] 10 mm Hg, n/N (%)” value (patients with OAB; vibegron 50 mg) was 5/144 (3.5) %. For the same compound, the “DBP Change from Baseline ≥15 mm Hg, n/N (%)” value (patients with OAB; vibegron 50 mg) was 1/144 (0.7) %, the “HR Change from Baseline [≥] 10 bpm, n/N (%)” value (patients with OAB; vibegron 50 mg) was 4/144 (2.8) % and the “HR Change from Baseline ≥5 bpm, n/N (%)” value (patients with OAB; vibegron 50 mg) was 12/144 (8.3) %. The “HR Change from Baseline ≥15 bpm, n/N (%)” value (patients with OAB; vibegron 50 mg) was 1/144 (0.7) %, the “SBP Change from Baseline [≥] 5 mm Hg, n/N (%)” value (patients with OAB; vibegron 50 mg) was 24/144 (16.7) % and the “SBP Change from Baseline [≥] 10 mm Hg, n/N (%)” value (patients with OAB; vibegron 50 mg) was 14/144 (9.7) %. The “SBP Change from Baseline ≥15 mm Hg, n/N (%)” value (patients with OAB; vibegron 50 mg) was 3/144 (2.1) %, the “DBP Change … (95% CI) Max” value (patients with OAB; vibegron 50 mg) was 4.19 (3.10, 5.29) mm Hg and the “HR Change … (95% CI) Maximum” value (patients with OAB; vibegron 50 mg) was 5.49 (4.28, 6.69) bpm. The “SBP Change … (95% CI) Maximum” value (patients with OAB; vibegron 50 mg) was 7.01 (5.31, 8.70) mm Hg, the “DBP Change … (95% CI) (week 1)” value (patients with OAB; vibegron 50 mg) was −0.70 (−2.07, 0.67) mm Hg and the “HR Change … (95% CI) (week 1)” value (patients with OAB; vibegron 50 mg) was 0.29 (−0.88, 1.46) bpm. The “SBP Change … (95% CI) (week 1)” value (patients with OAB; vibegron 50 mg) was −0.79 (−2.65, 1.08) mm Hg, the “subjects with orthostatic related AEs” value (patients with OAB; vibegron 100 mg group) was 1.1% and the “DBP Change from Baseline [≥] 5 mm Hg, n/N (%)” value (patients with OAB; vibegron 100 mg) was 31/237 (13.1) %. For the same compound, the “DBP Change from Baseline [≥] 10 mm Hg, n/N (%)” value (patients with OAB; vibegron 100 mg) was 8/237 (3.4) %, the “DBP Change from Baseline ≥15 mm Hg, n/N (%)” value (patients with OAB; vibegron 100 mg) was 3/237 (1.3) % and the “HR Change from Baseline [≥] 10 bpm, n/N (%)” value (patients with OAB; vibegron 100 mg) was 7/237 (3.0) %. For the same compound, the “HR Change from Baseline ≥5 bpm, n/N (%)” value (patients with OAB; vibegron 100 mg) was 28/237 (11.8) %, the “HR Change from Baseline ≥15 bpm, n/N (%)” value (patients with OAB; vibegron 100 mg) was 1/237 (0.4) % and the “SBP Change from Baseline [≥] 5 mm Hg, n/N (%)” value (patients with OAB; vibegron 100 mg) was 28/237 (11.8) %. For the same compound, the “SBP Change from Baseline [≥] 10 mm Hg, n/N (%)” value (patients with OAB; vibegron 100 mg) was 10/237 (4.2) %, the “SBP Change from Baseline ≥15 mm Hg, n/N (%)” value (patients with OAB; vibegron 100 mg) was 3/237 (1.3) % and the “DBP Change … (95% CI) Max” value (patients with OAB; vibegron 100 mg) was 4.80 (3.88, 5.72) mm Hg. The “HR Change … (95% CI) Maximum” value (patients with OAB; vibegron 100 mg) was 6.12 (5.10, 7.15) bpm, the “SBP Change … (95% CI) Maximum” value (patients with OAB; vibegron 100 mg) was 6.51 (5.09, 7.93) mm Hg and the “DBP Change … (95% CI) (week 1)” value (patients with OAB; vibegron 100 mg) was −0.69 (−1.72, 0.34) mm Hg. For the same compound, the “HR Change … (95% CI) (week 1)” value (patients with OAB; vibegron 100 mg) was 0.35 (−0.69, 1.38) bpm, the “SBP Change … (95% CI) (week 1)” value (patients with OAB; vibegron 100 mg) was −0.77 (−2.22, 0.68) mm Hg and the “predominant CYP responsible for in vitro metabolism” value (CYP3A4) was “CYP3A4”. For the same compound, the “PVR Categories at Week 12: <100 mL” value [1, 2] was 96.6%, the “PVR Categories at Week 12: ≥100 mL to <200 mL” value [1, 2] was 0% and the “PVR Categories at Week 12: ≥200 mL to <350 mL” value [1, 2] was 3.4%. For the same compound, the “PVR Categories at Week 12: ≥350 mL” value [1, 2] was 0%, the “PVR Mean Change from Baseline at Week 12 (SD)” value (“PVR Mean Change … (SD)” below) [1, 2] was −3.4 (42.45) mL and the “PVR Mean Change … (SD)” value [1, 3] was 2.2 (48.45) mL. The “PVR category <100 mL at Week 12” value [1, 3] was 89.7%, the “PVR category ≥100 mL to <200 mL at Week 12” value [1, 3] was 7.7% and the “PVR category ≥200 mL to <350 mL at Week 12” value [1, 3] was 2.6%. For the same compound, the “PVR category ≥350 mL at Week 12” value [1, 3] was 0, the “PVR Categories at Week 12: <100 mL” value ([1]; study population as a whole) was 89.9% and the “PVR Categories at Week 12: ≥100 mL to <200 mL” value ([1]; study population as a whole) was 3.5%. For the same compound, the “PVR Categories at Week 12: ≥200 mL to <350 mL” value ([1]; study population as a whole) was 0.6%, the “PVR Categories at Week 12: ≥350 mL” value ([1]; study population as a whole) was 0% and the “PVR Mean Change … (SD)” value ([1]; study population as a whole) was 0.4 (38.27) mL. For the same compound, the “treatment-emergent SAEs or deaths” value (healthy subjects; Phase 1 program) was “no treatment-emergent serious adverse events (SAEs) or deaths reported” and the “tolerability across the Phase 1 program” value (healthy subjects; single 2 to 600 mg, multiple 25 to 400 mg up to 28 days) was “generally well tolerated”.
